Assay results published in US5770083A, “Separation of polar compounds by affinity countercurrent chromatography” (The United States of America as represented by the …, priority 1995, dated 1998).
Read-outs that look alike come from different tables or passages of the source.

Assays:
[1] = Partition coefficient (K) in two-phase solvent systems, test tube procedure; assay type: physicochemical
Method: Each solvent system was prepared by equilibrating the solvent mixture, excluding the ligand, in a separatory funnel at room temperature. After two clear layers were formed, the two phases were separated. Then, a desired amount of the ligand was added to the organic phase which was then used as the stationary phase. The aqueous phase was used as the mobile phase.
Partition coefficients were measured using the standard test tube procedure as follows: The two-phase solvent system was prepared as described above. An aliquot of 2 mL of each phase, a total of 4 mL, was delivered in a test tube (13 mm ID×100 mm length) where a desired amount of the ligand and 1-2 mg of sample were added. Then, the test tube was stoppered and the contents were mixed until the resolved sample was completely equilibrated between two phases. Using a vortex mixer, it required 10 successive applications at a few second intervals after the sample was dissolved in the solvent. The tube was stand still until clear two layers were formed. If necessary, the tubes were centrifuged for 2-3 min at 1000×g to accelerate the phase separation. An aliquot of each phase, usually 100 μl, was separately diluted with 2 mL of a suitable diluent, usually methanol, and the absorbance determined with a spectrophotometer, (Zeiss, Hanover, Md., USA) at a desired wavelength. The partition coefficient for each component was obtained by the absorbance of the upper phase divided by that of the lower phase. […]

[2] = n-butanol/water two-phase solvent systems, no ligand; stated as background; cited from earlier work
[3] = methyl t-butyl ether / 0.1 M KH2PO4 (1:1), ligand DEHPA 10%, upper/lower phase

For `N[C@@H](Cc1ccc(O)c(O)c1)C(=O)O` (racemic) [DOPA, 3,4-dihydroxyphenylalanine], the “Partition Coefficient (K)” value [1] was 0.01 and the “K value (in words)” value ([1]; Dopa in zwitterionic form, pH-zone-refining run, Example 5) was “extremely low K value”.
For `CCCCC(CC)COP(=O)(O)OCC(CC)CCCC` (stereo not shown) [DEHPA, di-(2-ethylhexyl)phosphoric acid], the “K value of the ligand” value ([1]; ligand almost unilaterally distributed into the organic phase, MBE/aqueous systems) was over 100.
In the case of `CNC[C@H](O)c1ccc(O)c(O)c1` [Epinephrine, epinephrine], the “Partition Coefficient (K)” value ([1]; methyl t-butyl ether / 0.1 M NH4OAc and 0.5 M HCl (1:1), ligand DEHPA 1.5%, upper/lower phase) is reported as 0.4, the “Partition Coefficient” value ([1]; solvent system I: nButanol/H2O) is reported as 0.24 and the “Partition Coefficient” value ([1]; solvent system II: nButanol/0.1M NH4OAc) is reported as 0.13. The “Partition Coefficient” value ([1]; solvent system III: MBE/H2O) was 0.06, the “Partition Coefficient” value ([1]; solvent system IV: MBE/0.1M NH4OAc) was 0.16 and the “Partition Coefficient” value ([1]; solvent system V: MBE/DEHPA/0.1M NH4OAc (9:1:10)) was 5.83. For the same compound, the “Partition Coefficient” value ([1]; solvent system VI: MBE/DEHPA/0.05M HCl (9:1:10)) was 0.01, the “Partition Coefficient” value ([1]; solvent system VII: MBE/DEHPA/0.1M NH4OAc & 0.05M HCl (9:1:10)) was 1.42 and the “partition (in words)” value [2] was “almost exclusively into the aqueous phase”.
For `COc1cc(C(O)CN)ccc1O` (stereo not shown) [Normetanephrine, normetanephrine], the “Partition Coefficient (K)” value [1] was 0.5.
With `NCCc1ccc(O)cc1` [Tyramine, tyramine] the “Partition Coefficient (K)” value [1] was 1.7.
In the case of Ala--Tyr, the “Partition Coefficient (K)” value [1, 3] is reported as 0.5.
In the case of Gly--Tyr, the “Partition Coefficient (K)” value [1, 3] is reported as 0.1.
For Leu--Tyr, the “Partition Coefficient (K)” value [1, 3] was 10.
With Tyr--Ala the “Partition Coefficient (K)” value [1, 3] was 0.8.
In the case of Tyr--Gly, the “Partition Coefficient (K)” value [1, 3] is reported as 0.2.
With Tyr--Leu the “Partition Coefficient (K)” value [1, 3] was 18.
With Tyr--Val the “Partition Coefficient (K)” value [1, 3] was 4.9.
For Val--Tyr, the “Partition Coefficient (K)” value [1, 3] was 2.8.
